From PMC3486420, “In Vitro and In Vivo Characterizations of Chiglitazar, a Newly Identified PPAR Pan-Agonist” (PPAR Research, 2012)

Legend:
PPARα [1] = target: T1, PPARα (Homo sapiens, UniProt Q07869); test: PPARα transactivation reporter gene assay in SMMC-7721 cells; type: cell-based
T1 sequence (Q07869 1-468): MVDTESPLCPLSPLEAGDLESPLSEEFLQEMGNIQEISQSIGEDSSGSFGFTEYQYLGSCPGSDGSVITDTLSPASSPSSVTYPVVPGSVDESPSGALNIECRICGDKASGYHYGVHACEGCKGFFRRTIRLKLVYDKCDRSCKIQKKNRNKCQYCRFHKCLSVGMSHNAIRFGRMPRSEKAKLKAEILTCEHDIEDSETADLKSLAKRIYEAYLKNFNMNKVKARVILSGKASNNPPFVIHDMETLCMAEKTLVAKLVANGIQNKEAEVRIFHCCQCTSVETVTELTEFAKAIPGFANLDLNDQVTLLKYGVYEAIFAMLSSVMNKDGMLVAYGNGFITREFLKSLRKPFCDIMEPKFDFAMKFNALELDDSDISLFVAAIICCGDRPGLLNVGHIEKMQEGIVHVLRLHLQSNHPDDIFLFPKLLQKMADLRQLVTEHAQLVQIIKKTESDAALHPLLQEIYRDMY
T1 sequence (P19793 1-462 partner): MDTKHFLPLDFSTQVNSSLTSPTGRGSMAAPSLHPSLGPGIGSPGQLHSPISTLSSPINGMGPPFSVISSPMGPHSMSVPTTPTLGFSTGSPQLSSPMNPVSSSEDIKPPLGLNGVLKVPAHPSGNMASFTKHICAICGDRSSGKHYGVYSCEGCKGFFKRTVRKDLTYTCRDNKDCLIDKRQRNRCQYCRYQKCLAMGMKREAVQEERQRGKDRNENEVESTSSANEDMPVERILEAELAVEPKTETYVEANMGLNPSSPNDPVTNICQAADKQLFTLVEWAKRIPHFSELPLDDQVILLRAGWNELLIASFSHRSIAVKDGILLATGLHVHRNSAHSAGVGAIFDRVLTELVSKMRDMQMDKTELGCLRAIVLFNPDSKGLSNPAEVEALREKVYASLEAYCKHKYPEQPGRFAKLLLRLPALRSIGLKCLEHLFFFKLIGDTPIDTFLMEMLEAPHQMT

PPARα [2] = target: T1, PPARα; test: PPARα transactivation reporter gene assay in U2OS cells; type: cell-based
PPARγ = target: T2, PPARγ (Homo sapiens, UniProt P37231); test: PPARγ transactivation reporter gene assay in U2OS cells; type: cell-based
T2 construct: expressed in transfected cells; host or cells: SMMC-7721 or U2OS
T2 sequence (P37231 1-505): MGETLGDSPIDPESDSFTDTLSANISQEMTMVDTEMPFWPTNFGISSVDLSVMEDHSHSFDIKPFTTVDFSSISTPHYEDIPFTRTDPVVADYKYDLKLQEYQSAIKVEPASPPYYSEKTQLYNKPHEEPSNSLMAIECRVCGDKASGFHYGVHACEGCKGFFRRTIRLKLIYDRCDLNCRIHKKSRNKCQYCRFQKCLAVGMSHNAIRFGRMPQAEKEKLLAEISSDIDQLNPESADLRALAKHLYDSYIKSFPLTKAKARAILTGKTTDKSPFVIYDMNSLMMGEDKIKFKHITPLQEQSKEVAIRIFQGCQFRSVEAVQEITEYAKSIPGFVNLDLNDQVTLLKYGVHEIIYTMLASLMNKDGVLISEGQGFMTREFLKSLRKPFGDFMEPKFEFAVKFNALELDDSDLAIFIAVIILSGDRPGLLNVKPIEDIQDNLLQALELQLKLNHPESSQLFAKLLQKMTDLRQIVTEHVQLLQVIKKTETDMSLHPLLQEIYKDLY
T2 sequence (P19793 1-462 partner): T1 sequence (P19793 1-462 partner)

PPARδ = target: T3, PPARδ (Homo sapiens, UniProt Q03181); test: PPARδ transactivation reporter gene assay in U2OS cells; type: cell-based; settings: U2OS cells
T3 construct: expressed in transfected cells; host or cells: SMMC-7721 or U2OS
T3 sequence (Q03181 1-441): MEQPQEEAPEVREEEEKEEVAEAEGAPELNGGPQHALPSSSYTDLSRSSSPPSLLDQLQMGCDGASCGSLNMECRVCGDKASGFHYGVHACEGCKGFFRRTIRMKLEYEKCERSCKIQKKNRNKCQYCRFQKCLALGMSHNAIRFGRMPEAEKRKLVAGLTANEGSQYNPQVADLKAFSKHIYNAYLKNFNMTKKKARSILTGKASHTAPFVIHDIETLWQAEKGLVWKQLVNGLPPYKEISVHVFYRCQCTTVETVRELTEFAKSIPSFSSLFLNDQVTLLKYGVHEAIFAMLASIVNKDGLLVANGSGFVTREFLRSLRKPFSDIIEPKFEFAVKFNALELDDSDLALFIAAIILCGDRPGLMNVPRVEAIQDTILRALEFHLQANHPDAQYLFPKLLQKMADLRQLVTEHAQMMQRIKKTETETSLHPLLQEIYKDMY
T3 sequence (P19793 1-462 partner): T1 sequence (P19793 1-462 partner)

Wistar obese rats = test system: Wistar obese rats; set-up: method as in PMID 16751799; settings: Wistar obese rats treated for 9–40 days ref 18; cited from earlier work
[3] = 24 h treatment, luciferase reporter, hRXR cotransfected, ia: inactive at 10 μM
[4] = max response compared with WY at 50 μM

## O=C(c1ccc(F)cc1)c1ccccc1NC(Cc1ccc(OCCn2c3ccccc3c3ccccc32)cc1)C(=O)O (stereo not drawn) [Chi, 2-[(2-(4-fluorobenzoyl)phenyl)amino]-3-[4-(2-carbazolylethoxy)-phenyl]-propionic acid]
PPARα [1]; [3]
  EC50: 1100 ± 300 nM
PPARα [1]; [4]
  PPARα % Max: 142%
PPARα [2]; [3]
  EC50: 1200 ± 300 nM
PPARα [2]; [4]
  PPARα % Max: 147%
PPARγ; [3]
  EC50: 80 ± 20 nM
PPARγ; max response compared with Ros at 1 μM
  PPARγ % Max: 117%
PPARδ; 24 h treatment, luciferase reporter, hRXR cotransfected, ia: inactive at 10 μM, read-out: PPARδ EC50
  EC50: 1500 ± 200 nM
PPARδ; max response compared with 2-Bro at 10 μM
  PPARδ % Max: 244%
Wistar obese rats
  Optimal efficacy dose: 10 mg/kg
